Assays:
[1] = Sensory evaluation of aqueous solution VI containing 1,5-octadien-3-ol 10 ppb: off-flavor intensity and masking component intensity; details: aqueous solution VI, 1,5-octadien-3-ol 10 ppb, average score 0-4
How it was run: (§1)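 A sensory panel of eight scores each nootkatone-containing spiked water sample on two 0–4 scales. Off-flavor is relative, with the unmasked solution fixed at 4. Masker taste is absolute.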

[2] = Sensory evaluation of aqueous solution II containing (E)-2-octenal 10 ppb: off-flavor intensity and masking component intensity; details: (E)-2-octenal 10 ppb, average score 0-4
How it was run: as §1

[3] = Overall conclusion of the sensory evaluation across aqueous solutions I to VI
How it was run: as §1

[4] = Sensory evaluation of degradation component-added soymilk I ((E)-2-nonenal 5 ppb); details: average panel score
Experimental: (§2) To commercially available soymilk (“Delicious Unadjusted Soymilk” manufactured by Kikkoman Corporation), each degradation component was added to prepare degradation component-added soymilks at the concentrations listed in Table 23. To these degradation component-added soymilks, 1,4-dioxacycloheptadecan-5,17-dione was added at the concentrations listed in Table 23 to confirm the intensity of the off-flavor (masking effect) and the intensity of the masking components (impact on the flavor of the soymilk itself) for each sample.
(§3) Eight experienced panelists were selected to conduct a sensory evaluation similar to that of Example 1. […]

[5] = Sensory evaluation of degradation component-added soymilk II (1-octen-3-ol 500 ppb); details: average panel score
Experimental: as §2, §3

[6] = Overall conclusion of the sensory evaluation across soymilks I and II
Experimental: as §2
Eight experienced panelists were selected to conduct a sensory evaluation similar to that of Example 1.
The same method as in Example 20 was used to confirm the intensity of the off-flavor (masking effect) derived from unsaturated fatty acids by α-methyl ionone and the intensity of the masking components (impact on the flavor of the soymilk itself).
The same method as in Example 20 was used to confirm the intensity of the off-flavor (masking effect) derived from unsaturated fatty acids by menthyl 3-hydroxybutyrate and the intensity of the masking components (impact on the flavor of the soymilk itself).

[7] = Sensory evaluation of aqueous solution III containing 1-octen-3-one 1 ppb: off-flavor intensity and masking component intensity; details: 1-octen-3-one 1 ppb, average score 0-4
How it was run: as §1

[8] = Sensory evaluation of aqueous solution I containing (E)-2-nonenal 1 ppb: off-flavor intensity and masking component intensity; details: (E)-2-nonenal 1 ppb, average score 0-4
How it was run: as §1

[9] = Sensory evaluation of aqueous solution V containing 1-octen-3-ol 10 ppb: off-flavor intensity and masking component intensity; details: 1-octen-3-ol 10 ppb, average score 0-4
How it was run: as §1

[10] = Sensory evaluation of aqueous solution IV containing 1,5-octadien-3-one 100 ppt: off-flavor intensity and masking component intensity; details: aqueous solution IV, 1,5-octadien-3-one 100 ppt, average score 0-4
How it was run: as §1

CCC(=O)/C=C/C1C(C)=CCCC1(C)C (stereo not drawn) [α-Methyl Ionone, α-methyl ionone]
Off-Flavor Intensity ([1]; 0.01 ppt added): 3.5 points
Off-Flavor Intensity ([1]; 0.1 ppt added): 3.3 points
Off-Flavor Intensity ([1]; 1 ppb added): 1.4 points
Off-Flavor Intensity ([1]; 1 ppm added): 0.5 points
Off-Flavor Intensity ([1]; 1 ppt added): 2.8 points
Off-Flavor Intensity ([1]; 10 ppb added): 1.4 points
Off-Flavor Intensity ([1]; 10 ppt added): 2.4 points
Off-Flavor Intensity ([1]; 100 ppb added): 0.6 points
Off-Flavor Intensity ([1]; 100 ppt added): 2.0 points
Off-Flavor Intensity ([2]; 0.01 ppt added): 3.1 points
Off-Flavor Intensity ([2]; 0.1 ppt added): 2.8 points
Off-Flavor Intensity ([2]; 1 ppb added): 1.0 points
Off-Flavor Intensity ([2]; 1 ppm added): 0.3 points
Off-Flavor Intensity ([2]; 1 ppt added): 2.1 points
Off-Flavor Intensity ([2]; 10 ppb added): 0.8 points
Off-Flavor Intensity ([2]; 10 ppt added): 1.5 points
Off-Flavor Intensity ([2]; 100 ppb added): 0.4 points
Off-Flavor Intensity ([2]; 100 ppt added): 1.1 points
concentration that masks the off-flavor and does not affect the flavor of the food and/or beverage itself, lower limit [3]: ≥ 0.1 ppt
concentration that masks the off-flavor and does not affect the flavor of the food and/or beverage itself, upper limit [3]: ≤ 100 ppb
Masking Component Intensity ([4]; 1 ppb added): 0.8
Off-Flavor Intensity ([4]; 1 ppb added): 2.6
Masking Component Intensity ([4]; 1 ppm added): 3.9
Off-Flavor Intensity ([4]; 1 ppm added): 0.5
Masking Component Intensity ([4]; 10 ppb added): 1.9
Off-Flavor Intensity ([4]; 10 ppb added): 1.9
Masking Component Intensity ([4]; 100 ppb added): 3.1
Off-Flavor Intensity ([4]; 100 ppb added): 1.0
Masking Component Intensity ([4]; 100 ppt added): 0.1
Off-Flavor Intensity ([4]; 100 ppt added): 3.0
Masking Component Intensity ([5]; 1 ppb added): 0.8
Off-Flavor Intensity ([5]; 1 ppb added): 2.1
Masking Component Intensity ([5]; 1 ppm added): 3.9
Off-Flavor Intensity ([5]; 1 ppm added): 0.4
Masking Component Intensity ([5]; 10 ppb added): 1.4
Off-Flavor Intensity ([5]; 10 ppb added): 1.3
Masking Component Intensity ([5]; 100 ppb added): 2.8
Off-Flavor Intensity ([5]; 100 ppb added): 0.9
Masking Component Intensity ([5]; 100 ppt added): 0.4
Off-Flavor Intensity ([5]; 100 ppt added): 2.5
concentration that masks the off-flavor and does not affect the flavor of the soymilk itself, lower limit [6]: ≥ 100 ppt
concentration that masks the off-flavor and does not affect the flavor of the soymilk itself, upper limit [6]: ≤ 100 ppb
Off-Flavor Intensity ([7]; 0.01 ppt added): 3.4 points
Off-Flavor Intensity ([7]; 0.1 ppt added): 3.1 points
Off-Flavor Intensity ([7]; 1 ppb added): 1.4 points
Off-Flavor Intensity ([7]; 1 ppm added): 0.3 points
Off-Flavor Intensity ([7]; 1 ppt added): 2.6 points
Off-Flavor Intensity ([7]; 10 ppb added): 1.3 points
Off-Flavor Intensity ([7]; 10 ppt added): 2.3 points
Off-Flavor Intensity ([7]; 100 ppb added): 0.3 points
Off-Flavor Intensity ([7]; 100 ppt added): 1.9 points
Off-Flavor Intensity ([8]; 0.01 ppt added): 3.9 points
Off-Flavor Intensity ([8]; 0.1 ppt added): 3.3 points
Off-Flavor Intensity ([8]; 1 ppb added): 1.5 points
Off-Flavor Intensity ([8]; 1 ppm added): 0.3 points
Off-Flavor Intensity ([8]; 1 ppt added): 2.9 points
Off-Flavor Intensity ([8]; 10 ppb added): 1.0 points
Off-Flavor Intensity ([8]; 10 ppt added): 2.4 points
Off-Flavor Intensity ([8]; 100 ppb added): 0.3 points
Off-Flavor Intensity ([8]; 100 ppt added): 1.8 points
Off-Flavor Intensity ([9]; 0.01 ppt added): 3.6 points
Off-Flavor Intensity ([9]; 0.1 ppt added): 3.3 points
Off-Flavor Intensity ([9]; 1 ppb added): 1.4 points
Off-Flavor Intensity ([9]; 1 ppm added): 0.1 points
Off-Flavor Intensity ([9]; 1 ppt added): 2.8 points
Off-Flavor Intensity ([9]; 10 ppb added): 0.8 points
Off-Flavor Intensity ([9]; 10 ppt added): 2.4 points
Off-Flavor Intensity ([9]; 100 ppb added): 0.5 points
Off-Flavor Intensity ([9]; 100 ppt added): 1.8 points
Off-Flavor Intensity ([10]; 0.01 ppt added): 3.4 points
Off-Flavor Intensity ([10]; 0.1 ppt added): 3.3 points
Off-Flavor Intensity ([10]; 1 ppb added): 1.5 points
Off-Flavor Intensity ([10]; 1 ppm added): 0.4 points
Off-Flavor Intensity ([10]; 1 ppt added): 2.9 points
Off-Flavor Intensity ([10]; 10 ppb added): 1.4 points
Off-Flavor Intensity ([10]; 10 ppt added): 2.6 points
Off-Flavor Intensity ([10]; 100 ppb added): 0.8 points
Off-Flavor Intensity ([10]; 100 ppt added): 1.9 points

— patent US20250176599A1, “FLAVOR COMPOSITION AND FOOD AND BEVERAGE” (TAKASAGO INTERNATIONAL CORPORATION, priority 2021, published 2025)
